Experimental data as given in patent publication US10377753B2, “Substituted 4-azaindoles and their use as GluN2B receptor modulators” (Janssen Pharmaceutica NV, priority 2015, dated 2019).

Molecular target: cloned human NR1/NR2B ion channels (Homo sapiens (Human), UniProt Q05586+Q13224)
Test: HNR2BC: effects of test articles on cloned human NR1/NR2B ion channels expressed in mammalian cells (FLIPR calcium flux)
Format: cell-based
Conditions: cloned human NR1/NR2B ion channels, Table 5
Method in brief: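 Compounds were added to dye-loaded cells for 5 min with fluorescence monitored for agonism, followed by co-agonists (glutamate ~EC80, glycine 10 μM saturating) for 5 min. Cells stably expressed inducible human NR1/NR2B, and the buffer was pH 7.4. The FLIPR Ca2+ flux signal was normalized against control wells.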

Chain of cloned human NR1/NR2B ion channels (Q13224 27-1484, other chains not shown): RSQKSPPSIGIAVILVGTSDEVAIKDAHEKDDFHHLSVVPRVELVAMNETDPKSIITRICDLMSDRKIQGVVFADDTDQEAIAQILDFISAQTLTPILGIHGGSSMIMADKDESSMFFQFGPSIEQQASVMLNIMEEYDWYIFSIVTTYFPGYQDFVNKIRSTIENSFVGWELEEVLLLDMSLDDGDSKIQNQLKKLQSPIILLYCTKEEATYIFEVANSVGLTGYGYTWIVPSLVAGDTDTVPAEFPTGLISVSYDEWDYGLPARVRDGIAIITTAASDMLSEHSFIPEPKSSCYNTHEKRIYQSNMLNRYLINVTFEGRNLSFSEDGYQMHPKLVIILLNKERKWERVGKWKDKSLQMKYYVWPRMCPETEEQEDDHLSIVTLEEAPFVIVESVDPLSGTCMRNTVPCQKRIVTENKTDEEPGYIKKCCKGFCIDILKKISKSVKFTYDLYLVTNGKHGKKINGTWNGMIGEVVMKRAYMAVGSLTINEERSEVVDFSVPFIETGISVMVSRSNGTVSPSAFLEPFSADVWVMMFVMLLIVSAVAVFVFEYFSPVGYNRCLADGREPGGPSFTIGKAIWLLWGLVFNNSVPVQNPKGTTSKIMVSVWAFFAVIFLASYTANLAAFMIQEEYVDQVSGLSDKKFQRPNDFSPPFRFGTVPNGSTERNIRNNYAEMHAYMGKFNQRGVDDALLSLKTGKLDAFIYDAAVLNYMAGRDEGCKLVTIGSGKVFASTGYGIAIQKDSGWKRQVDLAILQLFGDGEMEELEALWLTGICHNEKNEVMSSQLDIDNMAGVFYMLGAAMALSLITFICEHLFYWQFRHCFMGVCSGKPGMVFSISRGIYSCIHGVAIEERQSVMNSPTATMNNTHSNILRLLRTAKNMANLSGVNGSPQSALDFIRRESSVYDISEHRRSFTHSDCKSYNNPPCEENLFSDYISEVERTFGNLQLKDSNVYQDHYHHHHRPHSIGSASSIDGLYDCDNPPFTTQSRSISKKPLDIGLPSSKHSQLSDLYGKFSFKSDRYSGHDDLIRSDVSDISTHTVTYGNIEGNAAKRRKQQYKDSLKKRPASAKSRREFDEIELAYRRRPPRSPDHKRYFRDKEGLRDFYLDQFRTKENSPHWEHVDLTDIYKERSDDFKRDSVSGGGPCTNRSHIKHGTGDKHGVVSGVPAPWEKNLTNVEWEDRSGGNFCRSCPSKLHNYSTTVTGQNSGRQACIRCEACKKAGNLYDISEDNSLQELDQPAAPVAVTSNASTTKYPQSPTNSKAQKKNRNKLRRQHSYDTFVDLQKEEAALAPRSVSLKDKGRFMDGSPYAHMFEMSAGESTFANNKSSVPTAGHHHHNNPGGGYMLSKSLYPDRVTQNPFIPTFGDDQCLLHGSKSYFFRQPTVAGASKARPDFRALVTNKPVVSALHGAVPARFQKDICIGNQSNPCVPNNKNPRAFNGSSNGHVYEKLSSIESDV

IC50 [nM] | Compound
39.8 | Cc1c(F)ccc(-c2cnc3c(F)cn(CC(=O)N(C)C)c3c2)c1F [Example 502, 2-[6-(2,4-Difluoro-3-methyl-phenyl)-3-fluoro-pyrrolo[3,2-b]pyridin-1-yl]-N,N-dimethyl-acetamide]
15.8 | CN(C)C(=O)Cn1cc(F)c2ncc(-c3cccc(Cl)c3)cc21 [Example 503, 2-[6-(3-Chlorophenyl)-3-fluoro-pyrrolo[3,2-b]pyridin-1-yl]-N,N-dimethyl-acetamide]
12.6 | CN(C)C(=O)Cn1cc(F)c2ncc(-c3ccc(F)c(Cl)c3)cc21 [Example 504, 2-[6-(3-Chloro-4-fluoro-phenyl)-3-fluoro-pyrrolo[3,2-b]pyridin-1-yl]-N,N-dimethyl-acetamide]
20 | CCc1cccc(-c2cnc3c(F)cn(CC(=O)N(C)C)c3c2)c1 [Example 505, 2-[6-(3-Ethylphenyl)-3-fluoro-pyrrolo[3,2-b]pyridin-1-yl]-N,N-dimethyl-acetamide]
15.8 | O=C(Cn1cc(F)c2ncc(-c3cccc(F)c3)cc21)N1CCC1 [Example 506, 1-(Azetidin-1-yl)-2-[3-fluoro-6-(3-fluorophenyl)pyrrolo[3,2-b]pyridin-1-yl]ethanone]
20 | O=C(Cn1cc(F)c2ncc(-c3ccccc3F)cc21)N1CC(F)C1 [Example 507, 1-(3-Fluoroazetidin-1-yl)-2-[3-fluoro-6-(2-fluorophenyl)pyrrolo[3,2-b]pyridin-1-yl]ethanone]
126 | O=C(Cn1cc(F)c2ncc(-c3ccc(F)c(C(F)(F)F)c3)cc21)N1CC(F)C1 [Example 508, 1-(3-Fluoroazetidin-1-yl)-2-[3-fluoro-6-[4-fluoro-3-(trifluoromethyl)phenyl]pyrrolo[3,2-b]pyridin-1-yl]ethanone]
31.6 | CN(C)C(=O)Cn1cc(F)c2ncc(-c3cc(F)cc(F)c3)cc21 [Example 509, 2-[6-(3,5-Difluorophenyl)-3-fluoro-pyrrolo[3,2-b]pyridin-1-yl]-N,N-dimethyl-acetamide]
39.8 | CN(C)C(=O)Cn1cc(F)c2ncc(-c3cccc(F)c3)cc21 [Example 510, 2-[3-Fluoro-6-(3-fluorophenyl)pyrrolo[3,2-b]pyridin-1-yl]-N,N-dimethyl-acetamide]
316 | CN(C)C(=O)Cn1cc(Cl)c2ncc(-c3ccccc3F)cc21 [Example 512, 2-[3-Chloro-6-(2-fluorophenyl)pyrrolo[3,2-b]pyridin-1-yl]-N,N-dimethyl-acetamide]
50.1 | Cc1cccc(-c2cnc3c(Cl)cn(CC(=O)N(C)C)c3c2)c1F [Example 513, 2-[3-Chloro-6-(2-fluoro-3-methyl-phenyl)pyrrolo[3,2-b]pyridin-1-yl]-N,N-dimethyl-acetamide]
126 | CN(C)C(=O)Cn1cc(Cl)c2ncc(-c3ccccc3)cc21 [Example 514, 2-(3-Chloro-6-phenyl-pyrrolo[3,2-b]pyridin-1-yl)-N,N-dimethyl-acetamide]
100 | Cc1cccc(-c2cnc3c(Cl)cn(CC(=O)N(C)C)c3c2)c1 [Example 515, 2-[3-Chloro-6-(m-tolyl)pyrrolo[3,2-b]pyridin-1-yl]-N,N-dimethyl-acetamide]
200 | CN(C)C(=O)Cn1cc(Cl)c2ncc(-c3ccc(F)c(C(F)(F)F)c3)cc21 [Example 516, 2-[3-Chloro-6-[4-fluoro-3-(trifluoromethyl)phenyl]pyrrolo[3,2-b]pyridin-1-yl]-N,N-dimethyl-acetamide]
100 | CN(C)C(=O)Cn1cc(Cl)c2ncc(-c3cccc(C(F)(F)F)c3F)cc21 [Example 517, 2-[3-Chloro-6-[2-fluoro-3-(trifluoromethyl)phenyl]pyrrolo[3,2-b]pyridin-1-yl]-N,N-dimethyl-acetamide]
63.1 | CN(C)C(=O)Cn1cc(Cl)c2ncc(-c3ccc(F)c(F)c3F)cc21 [Example 518, 2-[3-Chloro-6-(2,3,4-trifluorophenyl)pyrrolo[3,2-b]pyridin-1-yl]-N,N-dimethyl-acetamide]
63.1 | Cc1c(F)ccc(-c2cnc3c(Cl)cn(CC(=O)N(C)C)c3c2)c1F [Example 519, 2-[3-Chloro-6-(2,4-difluoro-3-methyl-phenyl)pyrrolo[3,2-b]pyridin-1-yl]-N,N-dimethyl-acetamide]
79.4 | CN(C)C(=O)Cn1cc(Cl)c2ncc(-c3ccc(F)c(Cl)c3)cc21 [Example 520, 2-[3-Chloro-6-(3-chloro-4-fluoro-phenyl)pyrrolo[3,2-b]pyridin-1-yl]-N,N-dimethyl-acetamide]
126 | O=C(Cn1cc(Cl)c2ncc(-c3ccccc3F)cc21)N1CCC1 [Example 521, 1-(Azetidin-1-yl)-2-[3-chloro-6-(2-fluorophenyl)pyrrolo[3,2-b]pyridin-1-yl]ethanone]
79.4 | Cc1cccc(-c2cnc3c(Cl)cn(CC(=O)N4CCC4)c3c2)c1F [Example 522, 1-(Azetidin-1-yl)-2-[3-chloro-6-(2-fluoro-3-methyl-phenyl)pyrrolo[3,2-b]pyridin-1-yl]ethanone]

IC50 [nM] | Compound
158 | O=C(Cn1cc(Cl)c2ncc(-c3ccc(F)c(C(F)(F)F)c3)cc21)N1CCC1 [Example 523, 1-(Azetidin-1-yl)-2-[3-chloro-6-[4-fluoro-3-(trifluoromethyl)phenyl]pyrrolo[3,2-b]pyridin-1-yl]ethanone]
79.4 | O=C(Cn1cc(Cl)c2ncc(-c3cccc(C(F)(F)F)c3F)cc21)N1CCC1 [Example 524, 1-(Azetidin-1-yl)-2-[3-chloro-6-[2-fluoro-3-(trifluoromethyl)phenyl]pyrrolo[3,2-b]pyridin-1-yl]ethanone]
50.1 | Cc1c(F)ccc(-c2cnc3c(Cl)cn(CC(=O)N4CCC4)c3c2)c1F [Example 525, 1-(Azetidin-1-yl)-2-[3-chloro-6-(2,4-difluoro-3-methyl-phenyl)pyrrolo[3,2-b]pyridin-1-yl]ethanone]
63.1 | O=C(Cn1cc(Cl)c2ncc(-c3cccc(Cl)c3)cc21)N1CCC1 [Example 526, 1-(Azetidin-1-yl)-2-[3-chloro-6-(3-chlorophenyl)pyrrolo[3,2-b]pyridin-1-yl]ethanone]
50.1 | O=C(Cn1cc(Cl)c2ncc(-c3ccc(F)c(Cl)c3)cc21)N1CCC1 [Example 527, 1-(Azetidin-1-yl)-2-[3-chloro-6-(3-chloro-4-fluoro-phenyl)pyrrolo[3,2-b]pyridin-1-yl]ethanone]
39.8 | O=C(Cn1cc(Cl)c2ncc(-c3cccc(Cl)c3F)cc21)N1CCC1 [Example 528, 1-(Azetidin-1-yl)-2-[3-chloro-6-(3-chloro-2-fluoro-phenyl)pyrrolo[3,2-b]pyridin-1-yl]ethanone]
79.4 | O=C(Cn1cc(Cl)c2ncc(-c3cccc(C(F)F)c3)cc21)N1CCC1 [Example 529, 1-(Azetidin-1-yl)-2-[3-chloro-6-[3-(difluoromethyl)phenyl]pyrrolo[3,2-b]pyridin-1-yl]ethanone]
39.8 | O=C(Cn1cc(Cl)c2ncc(-c3cccc(F)c3)cc21)N1CCC1 [Example 530, 1-(Azetidin-1-yl)-2-[3-chloro-6-(3-fluorophenyl)pyrrolo[3,2-b]pyridin-1-yl]ethanone]
50.1 | CN(C)C(=O)Cn1cc(Cl)c2ncc(-c3cccc(F)c3)cc21 [Example 531, 2-[3-Chloro-6-(3-fluorophenyl)pyrrolo[3,2-b]pyridin-1-yl]-N,N-dimethyl-acetamide]
50.1 | O=C(Cn1cc(Cl)c2ncc(-c3cc(F)cc(F)c3)cc21)N1CCC1 [Example 532, 1-(Azetidin-1-yl)-2-[3-chloro-6-(3,5-difluorophenyl)pyrrolo[3,2-b]pyridin-1-yl]ethanone]
50.1 | CCc1cccc(-c2cnc3c(Cl)cn(CC(=O)N4CCC4)c3c2)c1 [Example 533, 1-(Azetidin-1-yl)-2-[3-chloro-6-(3-ethylphenyl)pyrrolo[3,2-b]pyridin-1-yl]ethanone]
31.6 | CN(C)C(=O)Cn1cc(Cl)c2ncc(-c3cccc(Cl)c3)cc21 [Example 534, 2-[3-Chloro-6-(3-chlorophenyl)pyrrolo[3,2-b]pyridin-1-yl]-N,N-dimethyl-acetamide]
200 | O=C(Cn1cc(Cl)c2ncc(-c3ccccc3F)cc21)N1CC(F)C1 [Example 535, 2-[3-Chloro-6-(2-fluorophenyl)pyrrolo[3,2-b]pyridin-1-yl]-1-(3-fluoroazetidin-1-yl)ethanone]
25.1 | Cc1cccc(-c2cnc3c(Cl)cn(CC(=O)N4CC(F)C4)c3c2)c1F [Example 536, 2-[3-Chloro-6-(2-fluoro-3-methyl-phenyl)pyrrolo[3,2-b]pyridin-1-yl]-1-(3-fluoroazetidin-1-yl)ethanone]
12.6 | O=C(Cn1cc(Cl)c2ncc(-c3cc(F)cc(F)c3)cc21)N1CC(F)C1 [Example 537, 2-[3-Chloro-6-(3,5-difluorophenyl)pyrrolo[3,2-b]pyridin-1-yl]-1-(3-fluoroazetidin-1-yl)ethanone]
79.4 | O=C(Cn1cc(Cl)c2ncc(-c3cccc(C(F)(F)F)c3F)cc21)N1CC(F)C1 [Example 538, 2-[3-Chloro-6-[2-fluoro-3-(trifluoromethyl)phenyl]pyrrolo[3,2-b]pyridin-1-yl]-1-(3-fluoroazetidin-1-yl)ethanone]
25.1 | Cc1c(F)ccc(-c2cnc3c(Cl)cn(CC(=O)N4CC(F)C4)c3c2)c1F [Example 539, 2-[3-Chloro-6-(2,4-difluoro-3-methyl-phenyl)pyrrolo[3,2-b]pyridin-1-yl]-1-(3-fluoroazetidin-1-yl)ethanone]
25.1 | O=C(Cn1cc(Cl)c2ncc(-c3ccc(F)c(Cl)c3)cc21)N1CC(F)C1 [Example 540, 2-[3-Chloro-6-(3-chloro-4-fluoro-phenyl)pyrrolo[3,2-b]pyridin-1-yl]-1-(3-fluoroazetidin-1-yl)ethanone]
39.8 | O=C(Cn1cc(Cl)c2ncc(-c3cccc(Cl)c3F)cc21)N1CC(F)C1 [Example 541, 2-[3-Chloro-6-(3-chloro-2-fluoro-phenyl)pyrrolo[3,2-b]pyridin-1-yl]-1-(3-fluoroazetidin-1-yl)ethanone]
